In patent US6750034B1, “DNA encoding human serine protease D-G” (Ortho-McNeil Pharmaceutical, Inc., priority 2000, dated 2004):
[ ]: non-standard residue; d: D form. The star is where a group is joined. pNA = O=[N+]([O-])c1ccc(N*)cc1; Cbz = O=C(OCc1ccccc1)*

target: T1, activated protease D-G-6×HIS (Homo sapiens, UniProt Q9NRS4); assay: Chromogenic (amidolytic) assay, release of pNA from synthetic substrates; type: biochemical; settings: recombinant activated protease D-G-6×HIS; substrate 500 uM; 10 mM TRIS-HCl pH 7.8, 25 mM NaCl, 25 mM imidazole; 37° C., 120 min, 405 nm; N.A. = No Activity
T1 construct: enterokinase cleavage site from human trypsinogen I (EK) (N, cleaved yes); made in house; host or cells: Sf9 insect cells, baculovirus (pFastBac 1)
Method: Amidolytic activities of the activated serine proteases are monitored by release of para-nitroaniline (pNA) from synthetic substrates that are commercially available (Bachem California Inc., Torrance, […].; American Diagnostica Inc., Greenwich, Conn.; Kabi Pharmacia Hepar Inc., Franklin, Ohio). Assay mixtures contain chromogenic substrates in 500 uM and 10 mM TRIS-HCl (pH 7.8), 25 mM NaCl, and 25 mM imidazole. Release of pNA is measured over 120 min at 37° C. on a micro-plate reader (Molecular Devices, Menlo Park, Calif.) with a 405 nm absorbance filter. The initial reaction rates (Vmax, mOD/min) are determined from plots of absorbance versus time using Softmax (Molecular Devices, Menlo Park, Calif.). The specific activities (nmole pNA produced/min/ug protein) of the activated protease D-G-6×HIS for the various substrates are presented in Table 1.
Table 1—The specific activity (nmole pNA produced/min/ug protein) of recombinant activated protease D-G-6×HIS, determined for the various substrates analyzed, is shown.

T1 sequence (Q9NRS4 205-434 limits assumed): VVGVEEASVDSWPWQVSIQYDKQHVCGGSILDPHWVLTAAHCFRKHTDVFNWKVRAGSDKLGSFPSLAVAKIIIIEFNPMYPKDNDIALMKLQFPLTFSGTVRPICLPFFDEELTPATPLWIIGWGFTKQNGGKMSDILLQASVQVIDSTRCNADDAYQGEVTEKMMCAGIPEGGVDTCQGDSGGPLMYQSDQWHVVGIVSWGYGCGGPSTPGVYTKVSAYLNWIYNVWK

Row | Substance | Specific Activity
1 | Cbz-Phe-Arg-pNA | 0.116 ± 0.006 nmole pNA produced/min/ug protein
2 | H-D-LYS(CBO)-Pro-Arg-pNA | 0.076 ± 0.008 nmole pNA produced/min/ug protein
3 | H-D-Pro-HHT-Arg-pNA | 0.046 ± 0.001 nmole pNA produced/min/ug protein
4 | H-[dV]-Leu-Arg-pNA | 0.025 ± 0.003 nmole pNA produced/min/ug protein
5 | H-[dV]-Leu-Lys-pNA | 0.034 ± 0.003 nmole pNA produced/min/ug protein
